Our source for the IC50 values is US20230416205A1, “COMPOUNDS, COMPOSITIONS, AND METHODS” (Denali Therapeutics Inc, priority 2020, published 2023).

pIC50: −log10 of the molar value. Like-named read-outs stand apart in the source and are kept apart here.

This test concerns NLRP3. Nature of the test: IL-1β secretion assay in PMA-differentiated, LPS/nigericin-stimulated THP-1 cells (384-well, ELISA read-out). The class given is cell-based, human. In short, it runs like this: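 THP-1 cells differentiated with PMA (5 ng/mL, 40 h), primed in serum-free medium with 25 ng/mL LPS for 2 h, treated with compounds 1 h (0.5% DMSO), then stimulated with nigericin for 2 h at 37 °C. Supernatant IL-1β measured by ELISA; responses normalized to LPS+5 μM nigericin and LPS-only controls.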
(In general: In an ELISA, binding on a coated surface is turned into a signal by an enzyme label.)

Where [1] appears, read: Homo sapiens, THP-1, Table 4, IL-1β secretion, LPS/nigericin-stimulated THP-1 cells, read-out: IC50.
[2] abbreviates: Homo sapiens, THP-1, IL-1β secretion, PMA-differentiated THP-1 cells, LPS then nigericin stimulation, ELISA read at 450 nm, read-out: Activity.
The mark [3] stands for this setting: Table 4, IL-1β secretion, LPS/nigericin-stimulated THP-1 cells, read-out: IC50.

As for `O=C(CN1CC2(CC2)c2cc(Br)ccc2C1=O)Nc1ccc2cnsc2c1` [Example 398, N-(1,2-benzothiazol-6-yl)-2-(6-bromo-1-oxospiro[3H-isoquinoline-4,1′-cyclopropane]-2-yl)acetamide], the pIC50 under setting [1] was 5.72. As for `Cn1nc(C2CC2)cc1NC(=O)CN1CC2(CC2)c2cc(Br)ccc2C1=O` [Example 126, 2-(6-bromo-1-oxospiro[3H-isoquinoline-4,1′-cyclopropane]-2-yl)-N-(5-cyclopropyl-2-methylpyrazol-3-yl)acetamide], the pIC50 under setting [2] is under 4.82 and the pIC50 under setting [1] is 4.81. For `N#CC12CC(NC(=O)CN3CC4(CC4)c4cc(Br)ccc4C3=O)(C1)C2` [Example 14, 2-(6-bromo-1-oxospiro[3H-isoquinoline-4,1′-cyclopropane]-2-yl)-N-(3-cyano-1-bicyclo[1.1.1]pentanyl)acetamide], in that order: over 5.00 and 5.51. For `O=C(CN1CC2(CC2)c2cc(Br)ccc2C1=O)Nc1ccc2scnc2c1` [Example 146, N-(1,3-benzothiazol-5-yl)-2-(6-bromo-1-oxospiro[3H-isoquinoline-4,1′-cyclopropane]-2-yl)acetamide], in that order: over 5.00 and 5.56. In the case of `O=C(CN1CC2(CC2)c2nc(C3CC3)ccc2C1=O)Nc1ncc(F)cn1` [Example 311, 2-(2-cyclopropyl-5-oxospiro[7H-1,6-naphthyridine-8,1′-cyclopropane]-6-yl)-N-(5-fluoropyrimidin-2-yl)acetamide], the pIC50 under setting [1] is 5.85. Turning to `O=C(CN1CC2(CC2)c2cc(Br)ccc2C1=O)Nc1ncc2ccccc2n1` [Example 197, 2-(6-bromo-1-oxospiro[3H-isoquinoline-4,1′-cyclopropane]-2-yl)-N-quinazolin-2-ylacetamide], the pIC50 by setting is: under setting [2], over 5.00; under setting [1], 5.90. For `O=C(CN1C[C@]2(C[C@H]2F)c2cc(I)ccc2C1=O)Nc1ncc(F)cn1` [Example 246], the pIC50 was over 5.00 under setting [2] and 8.22 under setting [1]. Regarding `O=C(CN1CC2(CC2(F)F)c2c(ccc(Br)c2F)C1=O)Nc1ncc(Cl)cn1` (single isomer, unassigned) [Example 318, 2-[6-bromo-1′,1′,5-trifluoro-1-oxospiro[3H-isoquinoline-4,2′-cyclopropane]-2-yl]-N-(5-chloropyrimidin-2-yl)acetamide], the pIC50 under setting [3] is 8.10. Turning to `O=C(CN1CC2(CC2(F)F)c2c(ccc(Br)c2F)C1=O)Nc1ncc(F)cn1` (single isomer, unassigned) [Example 289, N-(5-fluoropyrimidin-2-yl)-2-[6-bromo-1′,1′,5-trifluoro-1-oxospiro[3H-isoquinoline-4,2′-cyclopropane]-2-yl]acetamide], the pIC50 is over 5.00 (IL-1β secretion, PMA-differentiated THP-1 cells, LPS then nigericin stimulation, ELISA read at 450 nm, read-out: Activity) and 7.57 under setting [3].

As for `Cc1cc(NC(=O)CN2CC3(CC3)c3cc(Br)ccc3C2=O)nc2ccnn12` [Example 368, 2-(6-bromo-1-oxospiro[3H-isoquinoline-4,1′-cyclopropane]-2-yl)-N-(7-methylpyrazolo[1,5-a]pyrimidin-5-yl)acetamide], the pIC50 under setting [1] is 5.80. On the same count and under the same terms, the value for `N#Cc1ccc(NC(=O)CN2CC3(CC3)c3cc(Br)ccc3C2=O)cn1` [Example 414, 2-(6-bromo-1-oxospiro[3H-isoquinoline-4,1′-cyclopropane]-2-yl)-N-(6-cyanopyridin-3-yl)acetamide] was 5.90. Regarding `O=C(CN1CC2(CC2)c2cc(Br)ccc2C1=O)Nc1ncc(Cl)cn1` [Example 4], the pIC50 is, setting by setting: under setting [2], over 5.00; under setting [1], 7.41. As to `COC1(C)CC(NC(=O)CN2CC3(CC3)c3cc(Br)ccc3C2=O)C1` (stereo not drawn) [Example 341, 2-(6-bromo-1-oxospiro[3H-isoquinoline-4,1′-cyclopropane]-2-yl)-N-(3-cis-methoxy-3-methylcyclobutyl)acetamide], the pIC50 under setting [3] is 5.62. As to `O=C(CN1CC2(CC2)c2cc(Br)ccc2C1=O)Nc1ccc2nncn2c1` [Example 159, 2-(6-bromo-1-oxospiro[3H-isoquinoline-4,1′-cyclopropane]-2-yl)-N-([1,2,4]triazolo[4,3-a]pyridin-6-yl)acetamide], the pIC50 reads like this: under setting [2], over 5.00; under setting [1], 5.75.

For `O=C(CN1C[C@@]2(C[C@@H]2F)c2cc(C(F)(F)F)ccc2C1=O)Nc1ncc(C(F)(F)F)cn1` (single isomer, unassigned) [Example 242, 2-[(2′s,4r)-2′-fluoro-1-oxo-6-(trifluoromethyl)spiro[3H-isoquinoline-4,1′-cyclopropane]-2-yl]-N-[5-(trifluoromethyl)pyrimidin-2-yl]acetamide], the pIC50 runs as follows: under setting [2], over 5.00; under setting [3], 5.89. `O=C(CN1CC2(CC2)c2cc(Br)ccc2C1=O)Nc1nc2ccc(C(F)(F)F)cc2o1` [Example 361, 2-(6-bromo-1-oxospiro[3H-isoquinoline-4,1′-cyclopropane]-2-yl)-N-[6-(trifluoromethyl)-1,3-benzoxazol-2-yl]acetamide]: the pIC50 under setting [1] was 6.07. On to `O=C(CN1CC2(CC2)c2cc(Br)ccc2C1=O)Nc1ncc(C2CCCO2)cn1` (stereo not shown) [Example 359, 2-(6-bromo-1-oxospiro[3H-isoquinoline-4,1′-cyclopropane]-2-yl)-N-[5-(oxolan-2-yl)pyrimidin-2-yl]acetamide], for which the pIC50 under setting [1] is 6.22. For the compound `O=C(CN1CC2(CC2)c2cc(Br)ccc2C1=O)NC1CC2(CC2)C1` [Example 23, 2-(6-bromo-1-oxo-spiro[3H-isoquinoline-4,1′-cyclopropane]-2-yl)-N-spiro[2.3]hexan-5-yl-acetamide], the pIC50 runs as follows: under setting [2], over 5.00; under setting [1], 5.73. In the case of `CN1CCC(NC(=O)CN2CC3(CC3)c3cc(Br)ccc3C2=O)C1=O` (stereo not shown) [Example 347, 2-(6-bromo-1-oxospiro[3H-isoquinoline-4,1′-cyclopropane]-2-yl)-N-(1-methyl-2-oxopyrrolidin-3-yl)acetamide], under setting [1], the pIC50 was 4.67. On to `O=C(CN1CC2(CC2)c2cc(Br)ccc2C1=O)Nc1ccc2[nH]ncc2c1` [Example 170, 2-(6-bromo-1-oxospiro[3H-isoquinoline-4,1′-cyclopropane]-2-yl)-N-(1H-indazol-5-yl)acetamide], for which the pIC50 was over 5.00 under setting [2] and 5.95 under setting [1]. For `O=C(CN1CC2(CC2)c2cc(Br)ccc2C1=O)NC1CC(C(F)F)C1` (stereo not shown) [Example 111, 2-(6-bromo-1-oxospiro[3H-isoquinoline-4,1′-cyclopropane]-2-yl)-N-[3-(difluoromethyl)cyclobutyl]acetamide], in that order: over 5.00 and 5.62. In the same order, the values of `O=C(CN1CC2(CC2)c2cc(Br)ccc2C1=O)Nc1ncc(-n2cccn2)cc1F` [Example 186, 2-(6-bromo-1-oxospiro[3H-isoquinoline-4,1′-cyclopropane]-2-yl)-N-(3-fluoro-5-pyrazol-1-ylpyridin-2-yl)acetamide] are over 5.00 and 5.28. As for `O=C(CN1CC2(CC2)c2c(ccc3sccc23)C1=O)Nc1ncc(F)cn1` [Example 315, N-(5-fluoropyrimidin-2-yl)-2-(6-oxospiro[8H-thieno[3,2-f]isoquinoline-9,1′-cyclopropane]-7-yl)acetamide], the pIC50 under setting [1] is 5.05. For the compound `COC(=O)N1CCC[C@@H](NC(=O)CN2CC3(CC3)c3cc(Br)ccc3C2=O)C1` [Example 71, methyl (3R)-3-[[2-(6-bromo-1-oxo-spiro[3H-isoquinoline-4,1′-cyclopropane]-2-yl)acetyl]amino]piperidine-1-carboxylate], the pIC50 by setting is: under setting [2], over 5.00; under setting [1], 5.16. As to `O=C(CN1CC2(CC2)c2cc(Br)ccc2C1=O)Nc1cnccn1` [Example 411, 2-(6-bromo-1-oxospiro[3H-isoquinoline-4,1′-cyclopropane]-2-yl)-N-pyrazin-2-ylacetamide], under setting [1], the pIC50 is 5.87. Turning to `O=C(CN1CC2(CC2)c2cc(Br)ccc2C1=O)NC1CCc2cn[nH]c2C1` (stereo not shown) [Example 45, 2-(6-bromo-1-oxospiro[3H-isoquinoline-4,1′-cyclopropane]-2-yl)-N-(4,5,6,7-tetrahydro-1H-indazol-6-yl)acetamide], the pIC50 was over 5.00 under setting [2] and 5.20 under setting [1]. Regarding `O=C(CN1CC2(CC2)c2cc(Br)ccc2C1=O)NCCN1CCOCC1` [Example 128, 2-(6-bromo-1-oxospiro[3H-isoquinoline-4,1′-cyclopropane]-2-yl)-N-(2-morpholin-4-ylethyl)acetamide], the pIC50 by setting is: under setting [2], 4.82 to 5.00; under setting [1], 4.92. `O=C(CN1CC2(CC2)c2cc(Br)ccc2C1=O)N[C@@H]1CCN(Cc2ccccc2)C1` [Example 355, N-[(3R)-1-benzylpyrrolidin-3-yl]-2-(6-bromo-1-oxospiro[3H-isoquinoline-4,1′-cyclopropane]-2-yl)acetamide]: under setting [1], the pIC50 was 5.30. As for `O=C(CN1CC2(CC2(F)F)c2cc(Br)ccc2C1=O)Nc1ncc(F)cn1` (single isomer, unassigned) [Example 290, 2-[6-bromo-1′,1′-difluoro-1-oxospiro[3H-isoquinoline-4,2′-cyclopropane]-2-yl]-N-(5-fluoropyrimidin-2-yl)acetamide], the pIC50 under setting [2] was over 5.00 and the pIC50 under setting [3] is 5.43. As for `CC1(O)CC(NC(=O)CN2CC3(CC3(F)F)c3c(ccc(Br)c3F)C2=O)C1` (single isomer, unassigned) [Example 325, N-(3-cis-hydroxy-3-methylcyclobutyl)-2-[6-bromo-1′,1′,5-trifluoro-1-oxospiro[3H-isoquinoline-4,2′-cyclopropane]-2-yl]acetamide], under setting [3], the pIC50 was under 6.00. On to `O=C(CN1C[C@]2(C[C@H]2F)c2cc(I)ccc2C1=O)Nc1ncccn1` [Example 247], for which the pIC50 is, setting by setting: under setting [2], over 5.00; under setting [1], 8.00.
